# Article PMC9250534, “Synthesis and direct assay of large macrocycle diversities by combinatorial late-stage modification at picomole scale” (Nature Communications, 2022)
# Numbered stars: 1 amine (or outer) side, 2 acyl side, 3 side chain; on linkers, the order of the positions; unused ones are H or OH. Bridge positions count the residues as written; N and C are the ends. Square brackets hold non-standard residues; d marks the D form. Peptide text beside a SMILES is read from it. * marks the point of attachment. Cysteamide = C(CS[*:3])N[*:1]; 4Amb = NCc1ccc(C(=O)O)cc1; Orn = NCCC[C@H](N)C(=O)O; Bz = O=C(c1ccccc1)*; βAla = NCCC(=O)O; Mpa = O=C(O)CCS
# Molecular target: T1, thrombin (Homo sapiens, UniProt P00734)
# T1 construct: consists of two polypeptide chains of 36 (light chain) and 259 amino acid
# Assay: Thrombin inhibition screen of crude macrocycle reactions (residual thrombin activity, fluorogenic substrate Z-Gly-Gly-Arg-AMC)
# Type: biochemical
# Conditions: 10 µM macrocycle concentration; crude reactions, Library 1a-l; scaffold AA1-AA2-AA3 combined with 1-16 or '-'
# Method: As a proof-of-concept, we screened the macrocycle library for inhibitors against thrombin, which is the central blood coagulation protease and an important therapeutic target. We conducted the screen for thrombin-inhibiting macrocycles in 384-well reaction plates. Briefly, each well contained a unique macrocycle (10 μM), 5 μL of thrombin (2 nM final conc.), and subsequently, 5 µL of a fluorogenic substrate to measure the residual thrombin activity and the extent of protease inhibition.
# The assays were performed in 384-well plates using Tris buffer at pH 7.4 (100 mM Tris-Cl, 150 mM NaCl, 10 mM MgCl2, 1 mM CaCl2, 0.1% w/v BSA, 0.01% v/v Triton-X100, and 0.6% v/v DMSO) using thrombin at a final concentration of 2 nM and the fluorogenic substrate Z-Gly-Gly-Arg-AMC at a final concentration of 50 μM. Thrombin (5 μL, 6 nM) in the Tris-Cl buffer described above was added to each peptide using a BioTek MultiFlo microplate dispenser, and incubated for 10 min at room temperature. […] Data was collected and exported using the Tecan Infinite M200 Pro instrument software. […] For the negative controls (20 wells containing DMSO but no macrocycle), an average slope was calculated. The percent of thrombin inhibition was calculated by dividing the slopes and multiplying the results by 100.
row,SMILES,percent residual thrombin activity
1,COc1ccc(C(=O)NCCC[C@@H]2NC(=O)CCNC(=O)CCSSCCNC(=O)[C@H](Cc3ccc(O)cc3)NC2=O)cn1 [B2-D2-Y/10],105.275%
2,O=C1CCSSCCNC(=O)[C@H](Cc2ccc(O)cc2)NC(=O)[C@H](CCCNC(=O)COc2ccccc2)NC(=O)CCN1 [B2-D2-Y/13],109.064%
3,O=C1CCSSCCNC(=O)[C@H](Cc2ccc(O)cc2)NC(=O)[C@H](CCCNC(=O)c2ccco2)NC(=O)CCN1 [B2-D2-Y/16],116.586%
4,CC(C)C[C@@H]1NC(=O)CCNC(=O)CCSSCCNC(=O)[C@H](CCCNC(=O)c2ccccc2)NC1=O [B2-L-D2/1] ([Mpa][βAla]L[Orn](Bz)-Cysteamide; disulfide 1-C),106.68%
5,CC(C)C[C@@H]1NC(=O)CCNC(=O)CCSSCCNC(=O)[C@H](CCCNC(=O)c2cnccn2)NC1=O [B2-L-D2/2],112.903%
6,COc1ccc(C(=O)NCCC[C@@H]2NC(=O)[C@H](CC(C)C)NC(=O)CCNC(=O)CCSSCCNC2=O)cn1 [B2-L-D2/10],110.801%
7,CC(C)C[C@@H]1NC(=O)CCNC(=O)CCSSCCNC(=O)[C@H](CCCNC(=O)c2c[nH]c(=O)[nH]c2=O)NC1=O [B2-L-D2/11],112.783%
8,CC(C)C[C@@H]1NC(=O)CCNC(=O)CCSSCCNC(=O)[C@H](CCCNC(=O)c2ccco2)NC1=O [B2-L-D2/16],111.509%
9,CC(C)C[C@@H]1NC(=O)CCNC(=O)CCSSCCNC(=O)[C@H](CCCN)NC1=O [B2-L-D2/-] ([Mpa][βAla]L[Orn]-Cysteamide; disulfide 1-C),113.32%
10,O=C1CCSSCCNC(=O)[C@H](Cc2ccc(O)cc2)NC(=O)[C@H](CCCCNC(=O)c2c[nH]c(=O)cn2)NC(=O)c2ccc(cc2)CN1 [B3-D1-Y/9],101.633%
11,COc1ccc(C(=O)NCCCC[C@@H]2NC(=O)c3ccc(cc3)CNC(=O)CCSSCCNC(=O)[C@H](Cc3ccc(O)cc3)NC2=O)cn1 [B3-D1-Y/10],99.2373%
12,COc1ccc(C(=O)NCCCC[C@@H]2NC(=O)[C@H](Cc3cnc[nH]3)NC(=O)c3ccc(cc3)CNC(=O)CCSSCCNC2=O)cn1 [B3-H-D1/10],107.476%
13,O=C1CCSSCCNC(=O)[C@H](CCCCNC(=O)c2c[nH]c(=O)[nH]c2=O)NC(=O)[C@H](Cc2c[nH]cn2)NC(=O)c2ccc(cc2)CN1 [B3-H-D1/11],112.941%
14,O=C1CCSSCCNC(=O)[C@H](CCCCNC(=O)c2ccc(Cl)s2)NC(=O)[C@H](Cc2c[nH]cn2)NC(=O)c2ccc(cc2)CN1 [B3-H-D1/14],102.666%
15,O=C1CCSSCCNC(=O)[C@H](CCCCNC(=O)c2ccco2)NC(=O)[C@H](Cc2cnc[nH]2)NC(=O)c2ccc(cc2)CN1 [B3-H-D1/16],107.22%
16,CC(C)[C@@H]1NC(=O)c2ccc(cc2)CNC(=O)CCSSCCNC(=O)[C@H](CCCCNC(=O)c2c[nH]c(=O)cn2)NC1=O [B3-V-D1/9],107.378%
17,COc1ccc(C(=O)NCCCC[C@@H]2NC(=O)[C@H](C(C)C)NC(=O)c3ccc(cc3)CNC(=O)CCSSCCNC2=O)cn1 [B3-V-D1/10],106.658%
18,O=C1CCSSCCNC(=O)[C@H](CCCCNC(=O)c2ccccc2)NC(=O)[C@@H](Cc2ccc(O)cc2)NC(=O)c2ccc(cc2)CN1 [B3-y-D1/1] ([Mpa][4Amb][dY]K(Bz)-Cysteamide; disulfide 1-C),107.146%
19,Cc1nnsc1C(=O)NCCCC[C@@H]1NC(=O)[C@@H](Cc2ccc(O)cc2)NC(=O)c2ccc(cc2)CNC(=O)CCSSCCNC1=O [B3-y-D1/15],112.065%
20,O=C(COc1ccccc1)NCCCC[C@@H]1NC(=O)[C@H]2CCCN(C2)C(=O)CCSSCCNC(=O)[C@H](CO)NC1=O [B4-D1-S/13],103.519%
21,O=C(NCCCC[C@@H]1NC(=O)[C@@H](Cc2c[nH]c3ccccc23)NC(=O)[C@H]2CCCN(C2)C(=O)CCSSCCNC1=O)c1ccccc1 [B4-W-D1/1],101.061%
22,CC(C)CC(=O)NCCCC[C@@H]1NC(=O)[C@@H](Cc2c[nH]c3ccccc23)NC(=O)[C@H]2CCCN(C2)C(=O)CCSSCCNC1=O [B4-W-D1/8],98.2761%
23,O=C(NCCCC[C@@H]1NC(=O)[C@@H](Cc2c[nH]c3ccccc23)NC(=O)[C@H]2CCCN(C2)C(=O)CCSSCCNC1=O)c1c[nH]c(=O)cn1 [B4-W-D1/9],96.1174%
24,O=C(COc1ccccc1)NCCCC[C@@H]1NC(=O)[C@@H](Cc2c[nH]c3ccccc23)NC(=O)[C@H]2CCCN(C2)C(=O)CCSSCCNC1=O [B4-W-D1/13],97.6967%

# Second part, the compound after the results:
row,percent residual thrombin activity,SMILES
1,84.8525%,O=C(NCCCC[C@@H]1NC(=O)[C@@H](Cc2c[nH]c3ccccc23)NC(=O)[C@H]2CCCN(C2)C(=O)CCSSCCNC1=O)c1ccc(Cl)s1 [B4-W-D1/14]
2,98.9418%,NCCCC[C@@H]1NC(=O)[C@@H](Cc2c[nH]c3ccccc23)NC(=O)[C@H]2CCCN(C2)C(=O)CCSSCCNC1=O [B4-W-D1/-]
3,105.33%,O=C(NCCCC[C@@H]1NC(=O)[C@@H](Cc2c[nH]c3ccccc23)NC(=O)[C@H]2CCCN(C2)C(=O)CCSSCCNC1=O)c1ccccc1 [B4-w-D1/1]
4,116.689%,CC(C)CC(=O)NCCCC[C@@H]1NC(=O)[C@@H](Cc2c[nH]c3ccccc23)NC(=O)[C@H]2CCCN(C2)C(=O)CCSSCCNC1=O [B4-w-D1/8]
5,111.618%,O=C(NCCCC[C@@H]1NC(=O)[C@@H](Cc2c[nH]c3ccccc23)NC(=O)[C@H]2CCCN(C2)C(=O)CCSSCCNC1=O)c1c[nH]c(=O)cn1 [B4-w-D1/9]
6,115.4%,O=C(COc1ccccc1)NCCCC[C@@H]1NC(=O)[C@@H](Cc2c[nH]c3ccccc23)NC(=O)[C@H]2CCCN(C2)C(=O)CCSSCCNC1=O [B4-w-D1/13]
7,105.59%,O=C(NCCCC[C@@H]1NC(=O)[C@@H](Cc2c[nH]c3ccccc23)NC(=O)[C@H]2CCCN(C2)C(=O)CCSSCCNC1=O)c1ccc(Cl)s1 [B4-w-D1/14]
8,108.066%,NCCCC[C@@H]1NC(=O)[C@@H](Cc2c[nH]c3ccccc23)NC(=O)[C@H]2CCCN(C2)C(=O)CCSSCCNC1=O [B4-w-D1/-]
9,107.115%,O=C1CCSSCCNC(=O)[C@H](Cc2c[nH]c3ccccc23)NC(=O)[C@H](CCCCNC(=O)c2ccc(Cl)s2)NC(=O)c2cccc(c2)CN1 [B5-D1-W/14]
10,109.077%,CC[C@H](C)[C@@H]1NC(=O)[C@H](CCCNC(=O)c2cnccn2)NC(=O)c2cccc(c2)CNC(=O)CCSSCCNC1=O [B5-D2-I/2]
11,102.465%,CC[C@H](C)[C@@H]1NC(=O)[C@H](CCCNC(=O)c2cc(C)on2)NC(=O)c2cccc(c2)CNC(=O)CCSSCCNC1=O [B5-D2-I/3]
12,108.374%,CC[C@H](C)[C@@H]1NC(=O)[C@H](CCCNC(=O)c2c[nH]c(=O)[nH]c2=O)NC(=O)c2cccc(c2)CNC(=O)CCSSCCNC1=O [B5-D2-I/11]
13,103.906%,CC[C@H](C)[C@@H]1NC(=O)[C@H](CCCNC(=O)Cc2c[nH]c3ccccc23)NC(=O)c2cccc(c2)CNC(=O)CCSSCCNC1=O [B5-D2-I/12]
14,106.564%,CC[C@H](C)[C@@H]1NC(=O)[C@H](CCCNC(=O)COc2ccccc2)NC(=O)c2cccc(c2)CNC(=O)CCSSCCNC1=O [B5-D2-I/13]
